“Also recorded” adds a separate entry of the source.
Test system: ERK phosphorylation (MAPK/ERK pathway)
Experiment: Western immunoblot of ERK phosphorylation in HL-60 extracts
Assay type: cell-based, human
Details: HL-60, 5 µM, 16 h
Method: Thus, using Western immunoblot analysis of HL-60 extracts, we investigated the expression and phosphorylation levels of ERK (as an indication of ERK activation), which is the downstream effector of the Ras/BRAF signalling pathway (Figure 6).
HL60s were seeded in T25 flasks at 50 × 10^4 cells/mL and cells were treated with either vehicle [0.5% EtOH (v/v)], 1–4, 9 or 52 (5 µM), as well as 1 (10 µM as reported). After 16 h, cells were collected and washed with PBS. Cell pellets were re-suspended in cold cell lysis buffer (radio-immunoprecipitation assay buffer) supplemented with 1% phosphatase inhibitor cocktail 2 and 3 (Sigma) and 10% protease inhibitor (Roche). Cells were lysed for 30 min on ice. Protein concentration was then determined by BCA assay. Lysates were boiled with Laemmli sample buffer [Tris-HCL 50 mM (pH 6.7), glycerol 10% (w/v), sodium dodecyl sulphate 2% (w/v), bromophenol blue 0.02% (w/v)] containing DTT […] for 10 min at 90 °C. Moreover, 20 µg of lysates were resolved by sodium dodecyl sulphate polyacrylamide gel electrophoresis (SDS-PAGE) and transferred onto PVDF transfer membrane (EMD Millipore). Membranes were blocked with 5% non-fat milk and probed with primary antibodies for ERK and phospho-ERK (Cell Signalling). Anti-GAPDH was used as a loading control (Calbiochem).
Figure 6 Western immunoblot of HL-60 cell extracts following incubation with compounds 2, 3, 4, 9, 52 and 1 (as a control). HL60 cells were seeded at 2 × 10^5 cells/mL and were treated with either vehicle [0.5% EtOH (v/v)], compounds 52, 2, 9, 3 and 4 (5 µM) or compound 1 (5 and (*) 10 µM, as in reference) for 16 h. Cells were lysed and equal amounts of protein were loaded and separated on 15% SDS-PAGE gels, transferred to PVDF membrane and probed with antibodies against total and phosphorylated ERK. Anti-GAPDH was used as a loading control. Results are representative of 2 independent experiments.
HL-60 cells were seeded in T25 flasks at 50 x10^4 cells/mL and treated with either vehicle [0.5% […]
After 16 hours, cells were […]
collected and washed with PBS. Cell pellets were re-suspended in cold cell lysis buffer (radio-immunoprecipitation assay buffer) supplemented with 1% phosphatase inhibitor cocktail 2 and 3 (Sigma) and 10% protease inhibitor (Roche). Cells were lysed for 30 minutes on ice.
Protein concentration was then determined by BCA assay. Lysates were boiled with laemmli sample buffer [Tris-HCL 50 mM (pH 6.7), glycerol 10% (w/v), sodium dodecyl sulphate 2% (w/v), bromophenol blue 0.02% (w/v)] containing DTT […] for 10 min. at 90 °C. Also 20 µg of lysates were resolved by sodium dodecyl sulphate polyacrylamide gel electrophoresis (SDS - PAGE) and transferred onto PVDF transfer membrane (EMD Millipore). Membranes were blocked with 5% non-fat milk and probed with primary antibodies for ERK and phospho-ERK (Cell Signaling). Anti-GAPDH was used as a loading control (Calbiochem).

Cl.N=C(N)Nc1ccc(Oc2cccc(Nc3ccc(Cl)c(C(F)(F)F)c3)c2)cc1 [Compound 3, 1-(4-(3-((4-Chloro-3-(trifluoromethyl)phenyl)amino)phenoxy)phenyl)guanidine hydrochloride] was tested, and the “effect on ERK phosphorylation (Ras/BRAF pathway)” value (“effect … (Ras/BRAF pathway)” below) was “do not appear to interfere with the Ras/BRAF signalling pathway; also recorded: do not act in the same way”.
Cl.N=C(N)Nc1ccc(Oc2cccc(Nc3ccc(Cl)c(C(F)(F)F)c3)c2)cn1 [Compound 4, 1-(5-(3-((4-Chloro-3-(trifluoromethyl)phenyl)amino)phenoxy)pyridin-2-yl)guanidine hydrochloride] was tested, and the “effect … (Ras/BRAF pathway)” value was “do not appear to interfere with the Ras/BRAF signalling pathway; also recorded: do not act in the same way”.
Cl.Cl.N=C(N)Nc1ccc(Oc2cccc(NC(=N)Nc3ccc(Cl)c(C(F)(F)F)c3)c2)cn1 [Compound 2, 1-(4-Chloro-3-(trifluoromethyl)phenyl)-3-(3-((6-guanidinopyridin-3-yl)oxy)phenyl) guanidine dihydrochloride] was tested, and the “effect … (Ras/BRAF pathway)” value was “inhibiting ERK phosphorylation; also recorded: abrogates ERK activation”.

From paper PMC7767381, “Exploring the Anti-Cancer Mechanism of Novel 3,4′-Substituted Diaryl Guanidinium Derivatives” (Pharmaceuticals, 2020)
